Results: paper PMC10408569, “Recruitment of hexahydroquinoline as anticancer scaffold targeting inhibition of wild and mutants EGFR (EGFR^WT, EGFR^T790M, and EGFR^L858R)” (Journal of Enzyme Inhibition and Medicinal Chemistry, 2023)

How the values were obtained:
HOP-92 cells [1] = test: Annexin V-FITC apoptosis assay; assay type: cell-based, human; settings: for total apoptosis, fold more than control / total apoptosis percentage: HOP-92; for early apoptosis ratio / late apoptosis ratio: HOP-92, 10 µM, 24 h; for early apoptosis ratio: control (DMSO) 0.70%; for late apoptosis ratio: control (DMSO) 1.80%; for total apoptosis percentage: control 2.5%
From the text: The most important mechanism chemotherapeutics eradicate cancer cells is apoptosis induction[78]^,[79]. Cellular alterations brought on by apoptosis include the translocation of phosphatidylserine (PS) from the inside to the outside via the plasma membrane[80]^,[81]. PS can be detected outside the plasma membrane using a sensitive probe called Annexin V, which can bind to PS[82]^,[83]. […] HOP-92 cells were also overexpressed in NSC lung cancer. Therefore, they were selected to be subjected to apoptosis assay. HOP-92 cells were stained with AV/PI for 24 h at a mixed molar concentration of 10 µM with compounds 10c and 10d (Figure 7(A,B)). […] These findings supported that the cytotoxic effects of compounds 10c and 10d were due to the apoptotic mechanism rather than the necrotic pathway. The results of compounds 10c and 10d compared to the control sample are presented as a bar chart (Figure 7(D)).
[…] Annexin V-FITC apoptosis assay
A protein known as annexin V-fluorescein isothiocyanate (Annexin V-FITC) binds phosphatidyl serine PS, which can be seen by staining. They used Annexin V-FITC and a propidium iodide counterstain (PI). Apoptosis was first induced by incubating cells in 96-microwell plates at a density of […] with the addition of the test substance (100 µL) for 24 hours. Then, 1-5 × 10^5 cells were centrifuged and resuspended in 500 µL of binding buffer. PI (5 µL) and Annexin V - FITC (5 µL) were added, and the mixture was incubated at room temperature for 5 minutes in the dark. An nexin -V -FITC binding was analyzed using A FACS C alibur flow cytometer (BD Biosciences, San Jose, CA). […]

HOP-92 cells [2] = test: Cell cycle analysis by flow cytometry; assay type: cell-based, human; settings: HOP-92, 10 µM, 24 h; for percentage of cells at the pre-G1 phase: control 3.05%; for cells at G2/M: control 12.98%; for proportion of cells in the S phase: control 31.46%; for percentage of cells in the G0/G1: control 55.38%
Protocol: Antitumor drugs can cause cell cycle arrest and death via activating signalling pathways[85]^,[86]. Cell growth in various cell cycle phases is measured by flow cytometry[87]^,[88]. […] We have treated HOP-92 cells with 10 µM of compounds 10c and 10d to incubate for 24 h. […] According to these observations, Compounds 10c and 10d induce apoptosis in NSC lung cancer, HOP-92, cells via cell cycle arrest at the pre-G1 phase as well as the G2/M phase (Figure 8(D)). […]
[…] Cellular mechanistic analysis
The examination of the cell cycle was done using flow cytometry. The test compound was applied to HOP-92 cells before they were cultured for 24 hours at 37 °C, 5% CO 2. After gathering and centrifuging the cell pellets, they were fixed in 70% (v/v) ethanol unde r the ice for 15 minutes. Pellets were once more collected and then incubated in a solution of 50 µg/mL propidium iodide (PI) and […]
0.1 mg/mL RNAse. […]

NCI-H23 = test: NCI-60 anticancer screening (SRB); assay type: cell-based; settings: Homo sapiens, five doses 0.01-100 µM, 48 h

Compound	total apoptosis, fold more than control (HOP-92 cells [1])	early apoptosis ratio (HOP-92 cells [1])	late apoptosis ratio (HOP-92 cells [1])	total apoptosis percentage (HOP-92 cells [1])	percentage of cells at the pre-G1 phase (HOP-92 cells [2])	cells at G2/M (HOP-92 cells [2])	proportion of cells in the S phase (HOP-92 cells [2])	percentage of cells in the G0/G1 (HOP-92 cells [2])	GI50 (NCI-H23)
CCOC(=O)C1=C(N)N(c2ccc(Cl)cc2)C2=C(C(=O)CC(C)(C)C2)C1c1ccc(Cl)cc1Cl (racemic) [10d, (±)-Ethyl 2-amino-1–(4-chorophenyl)-4–(2,4-dichlorophenyl)-7,7-dimethyl-5-oxo-1-phenyl-1,4,5,6,7,8-hexahydroquinoline-3-carboxylate]	~8 fold	7.68%	12.15%	19.83%	21.55%	49.21%	25.42%	25.37%	–
CCOC(=O)C1=C(N)N(c2ccccc2)C2=C(C(=O)CC(C)(C)C2)C1c1ccc(Cl)cc1Cl (racemic) [10c, (±)-Ethyl 2-amino-4–(2,4-dichlorophenyl)-7,7-dimethyl-5-oxo-1-phenyl-1,4,5,6,7,8-hexahydroquinoline-3-carboxylate]	approximately 10 fold	8.74%	15.44%	24.18%	25.82%	34.07%	20.18%	45.75%	2510 nM
